Patent US20250026759A1 (Merck Sharp & Dohme LLC, priority 2023, published 2025)

test system: PBMCs infected with VSV-G pseudotyped HIV virus (VSV-G/pNLG1-P2A-ΔEnv); assay: cells; format: cell-based, human; conditions: Homo sapiens, PBMC, read-out: TACK EC50

Structure (SMILES) | EC50 [µM]
COCc1cc(Cl)n(Cc2cc3c(cc2F)[C@@](C#CC2CC2)(C(C)(F)F)NC(=O)N3)n1 [Example 18, (S)-7-((5-chloro-3-(methoxymethyl)-1H-pyrazol-1-yl)methyl)-4-(cyclopropylethynyl)-4-(1,1-difluoroethyl)-6-fluoro-3,4-dihydroquinazolin-2(1H)-one] | 0.0466
CC(F)(F)[C@@]1(C#CC2CC2)NC(=O)Nc2cc(Cn3ccc(Br)n3)c(F)cc21 [Example 19, (S)-7-((3-bromo-1H-pyrazol-1-yl)methyl)-4-(cyclopropylethynyl)-4-(1,1-difluoroethyl)-6-fluoro-3,4-dihydroquinazolin-2(1H)-one] | 0.0262
CC(F)(F)[C@@]1(C#CC2CC2)NC(=O)Nc2cc(Cn3cncn3)c(F)cc21 [Example 20, (S)-7-((1H-1,2,4-triazol-1-yl)methyl)-4-(cyclopropylethynyl)-4-(1,1-difluoroethyl)-6-fluoro-3,4-dihydroquinazolin-2(1H)-one] | 0.0437
O=C1Nc2cc(Cn3cc4cnccc4n3)c(F)cc2[C@@](C#CC2CC2)(C(F)(F)F)N1 [Example 21, (S)-7-((2H-pyrazolo[4,3-c]pyridin-2-yl)methyl)-4-(cyclopropylethynyl)-6-fluoro-4-(trifluoromethyl)-3,4-dihydroquinazolin-2(1H)-one] | 0.0134
O=C1Nc2cc(Cn3c(=O)[nH]c4ccccc43)c(F)cc2[C@@](C#CC2CC2)(C(F)(F)F)N1 [Example 24, (S)-4-(cyclopropylethynyl)-6-fluoro-7-((2-oxo-2,3-dihydro-1H-benzo[d]imidazol-1-yl)methyl)-4-(trifluoromethyl)-3,4-dihydroquinazolin-2(1H)-one] | 0.0325
O=C1Nc2cc(Cn3cc4cncnc4n3)c(F)cc2[C@@](C#CC2CC2)(C(F)(F)F)N1 [Example 27, (S)-7-((2H-pyrazolo[3,4-d]pyrimidin-2-yl)methyl)-4-(cyclopropylethynyl)-6-fluoro-4-(trifluoromethyl)-3,4-dihydroquinazolin-2(1H)-one] | 0.0826
O=C1Nc2cc(Cn3cc4cccnc4n3)c(F)cc2[C@@](C#CC2CC2)(C(F)(F)F)N1 [Example 28, (S)-7-((2H-pyrazolo[3,4-b]pyridin-2-yl)methyl)-4-(cyclopropylethynyl)-6-fluoro-4-(trifluoromethyl)-3,4-dihydroquinazolin-2(1H)-one] | 0.104
O=C1Nc2cc(CN3C(=O)CNC3=O)c(F)cc2[C@@](C#CC2CC2)(C(F)(F)F)N1 [Example 29, (S)-3-((4-(cyclopropylethynyl)-6-fluoro-2-oxo-4-(trifluoromethyl)-1,2,3,4-tetrahydroquinazolin-7-yl)methyl)imidazolidine-2,4-dione] | 0.0274
COCc1ccn(Cc2cc3c(cc2F)[C@@](C#CC2CC2)(C(F)(F)F)NC(=O)N3)n1 [Example 30, (S)-4-(cyclopropylethynyl)-6-fluoro-7-((3-(methoxymethyl)-1H-pyrazol-1-yl)methyl)-4-(trifluoromethyl)-3,4-dihydroquinazolin-2(1H)-one] | 0.0365
O=C1Nc2cc(Cn3cnc(CO)n3)c(F)cc2[C@@](C#CC2CC2)(C(F)(F)F)N1 [Example 31, (S)-4-(cyclopropylethynyl)-6-fluoro-7-((3-(hydroxymethyl)-1H-1,2,4-triazol-1-yl)methyl)-4-(trifluoromethyl)-3,4-dihydroquinazolin-2(1H)-one] | 0.0528
Cc1nn(C)c(=O)n1Cc1cc2c(cc1F)[C@@](C#CC1CC1)(C(F)(F)F)NC(=O)N2 [Example 32, (S)-4-(cyclopropylethynyl)-7-((1,3-dimethyl-5-oxo-1,5-dihydro-4H-1,2,4-triazol-4-yl)methyl)-6-fluoro-4-(trifluoromethyl)-3,4-dihydroquinazolin-2(1H)-one] | 0.0144
Cc1n[nH]c(=O)n1Cc1cc2c(cc1F)[C@@](C#CC1CC1)(C(F)(F)F)NC(=O)N2 [Example 33, (S)-4-(cyclopropylethynyl)-6-fluoro-7-((3-methyl-5-oxo-1,5-dihydro-4H-1,2,4-triazol-4-yl)methyl)-4-(trifluoromethyl)-3,4-dihydroquinazolin-2(1H)-one] | 0.0236
